Positions count from the first letter of the chain named. Numbers in names are those of the source. Where “and” joins values, the source holds several entries; their conditions need not be identical. Identical values can stand only once. Entries after “also recorded” stand apart in the source; their conditions may differ. Like-named read-outs stand apart in the source and are kept apart here.
Tests used:
BL21(DE3) cells = test: Cytotoxicity of Ir(Me)MPIX and cyclopropyl limonene, cell growth by OD600; details: for inhibition of cell growth: concentration range relevant for the study
Method: 10. […] Individual colonies from freshly transformed plates (incubated at 30° C.) were inoculated into 2 mL M9-rich media supplemented with appropriate antibiotics. A 1:100 dilution of overnight cultures into 300 μL M9-rich media was performed in a 48-well plate. […] The OD600 values were recorded by a plate reader (F200 or F200pro, Tecan) set at 30° C.
Cyclopropyl limonene; BL21(DE3) cells co-transformed with pHug21 (coding for HUG system) and pJHA110 (coding for CYP119 mutant) were grown and cultivated as described above. The stock solution of cyclopropyl limonene in ethanol was added to the cell culture to give final concentration of 0, 0.2, 1, 5, 25 mg/L cyclopropyl limonene and 1% (v/v) ethanol. The OD600 values were recorded by a plate reader (F200 or F200pro, Tecan) set at 30° C.

E. coli BL21(DE3) cells = test: Evaluation of the effect of Ir(Me)MPIX and cyclopropyl limonene on cell growth (OD600); format: cell-based, Escherichia coli; details: 30° C.
[1] = test system: E. coli cells expressing limonene biosynthetic pathway; test: Effect of Ir(Me)MPIX addition on limonene titer; format: cell-based; details: 0.1 μM Ir(Me)MPIX in DMSO
Method: 6. Limonene biosynthesis. Chemically competent BL21(DE3) (NEB) cells were transformed with a plasmid coding for MEV pathway enzymes to produce limonene from glucose in E. coli (pJBEI6410 or pJBEI6409). […] The cultures were grown overnight at 30° C. and 200 rpm for 18 h. In a 50 mL glass culture tube, 10 mL of M9-rich media was inoculated with 100 μL of overnight starter culture and incubated at 37° C. and 200 rpm to an OD600 of ˜1. Unless otherwise indicated, the cultures were then induced by adding 50 μM IPTG (final concentration), and 10% (v/v) dodecane was added to trap the limonene produced. Upon induction, the temperature was reduced to 30° C. and expressions were allowed to continue for 24 h at 200 rpm. An aliquot of the 100 μL dodecane overlay was diluted with 900 μL ethyl acetate containing 40 mg/L beta-pinene (beta-pinene as internal standard) and analyzed by GC-MS.

[2] = target: T1, Sulfolobus CYP119 (cytochrome P450 119, parent sequence SEQ ID NO: 1), apo form, CYP119-141 mutant (C317G, T213G, V254L, L155W) (Sulfolobus acidocaldarius, UniProt Q55080, C317G/L155W/T213G/V254L); test: Binding affinity of apo-CYP119 towards Ir(Me)MPIX/hemin (intrinsic fluorescence quenching, Benesi-Hildebrand); design: species or system Sulfolobus solfataricus; details: excitation 294 nm, 10 mM TRIS buffer pH 8.0, Benesi-Hildebrand analysis
T1 construct: made in house
T1 sequence (Q55080 whole entry L155W/T213G/V254L/C317G): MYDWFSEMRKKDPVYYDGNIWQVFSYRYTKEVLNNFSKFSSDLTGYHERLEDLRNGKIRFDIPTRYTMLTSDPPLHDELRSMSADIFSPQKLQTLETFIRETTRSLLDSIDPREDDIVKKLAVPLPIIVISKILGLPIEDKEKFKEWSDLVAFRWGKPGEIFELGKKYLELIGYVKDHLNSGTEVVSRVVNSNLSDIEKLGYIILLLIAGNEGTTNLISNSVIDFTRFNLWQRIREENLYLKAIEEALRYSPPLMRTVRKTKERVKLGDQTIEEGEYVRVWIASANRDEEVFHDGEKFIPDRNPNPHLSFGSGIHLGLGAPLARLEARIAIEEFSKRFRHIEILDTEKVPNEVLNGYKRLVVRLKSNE
Method: Intrinsic fluorescence quenching;^8 Modified from a reported procedure, aliquots (10 μL) of metalloporphyrin stock solutions (in DMSO) were added to a solution containing 0.15 mg/L apo-CYP119 (CYP119-141 mutant, 800 μL, 10 mM TRIS buffer, pH 8.0). This addition caused the concentration of the protein to decrease from its initial value to a final concentration of 0.148 mg/L in the process. After each addition, the emission spectrum of CYP119 was recorded upon excitation at 294 nm. In quenching experiments, the concentration of the chromophore (CYP119 or porphyrin) was kept sufficiently low (<0.15) to ensure uniform light absorption throughout the sample and reduced inner filter effects. The fluorescence emission intensity was calculated as the integral of the emission spectrum in the recorded wavelength range (305-450 nm).

apo-ascorbate peroxidase [3] = details: literature; cited from earlier work
apo-myoglobin [4] = details: literature; cited from earlier work
apo-myoglobin [5] = details: from literature (ref. 9); cited from earlier work
apo-ascorbate peroxidase [6] = details: from literature (ref. 9); cited from earlier work
[7] = test system: E. coli cells expressing the artificial biosynthetic pathway (pJBEI6410+pJHA170); test: Cell viability test with CFU (colony forming units) assay; format: cell-based; details: high concentration, 4 h exposure
Method: 9. Cell viability test with CFU (colony forming units) assay. E. coli cells co-transformed with pJBEI6410 and pJHA170 were grown as described in 7, except for the following steps. […] A portion of cell culture (1.4 mL) was transferred into Falcon 14 mL round-bottom tube. […] For the control group, only sterile ddH2O (1%, v/v) was added. The cultures were further incubated at 30° C., 200 rpm for 4 h. Then the cultures were diluted 10^5 times. Aliquots of diluted cell suspension (50 μL) were plated onto LB agar plates. The plates were incubated at 30° C. for 24 h. The colonies grown on the plates were manually counted and the percentage of viable cells in each group was calculated by normalizing the number of colonies grown in the control group as 100%.

[8] = Cyclopropanation of (−)-limonene by Ir-CYP119 reconstituted in vitro or free cofactor; format: biochemical; details: Ir-CYP119 mutants reconstituted in vitro, average of two replicates
Method: 12. […] The buffer of the protein solution was subsequently exchanged to TRIS buffer (20 mM, pH 7.5) using a NAP-10 column (GE Healthcare). […] To the reaction vial, 10 μL of 0.125 M stock solution of limonene in EtOH was added. The reaction vial was sealed with a cap containing a septum. The syringes of a multichannel syringe pump were loaded with a stock solution of EDA in DMSO (20 μL of 0.25 M solution of EDA in DMSO), and the EDA solution was added to the reaction over 1.5 h. The reaction was quenched upon the conclusion of the addition of EDA by adding 100 μL of 2 N HCl and extracted with 1 mL dodecane stock solution (0.1% (v/v) in ethyl acetate). The organic layer was then transferred to a separate vial for GC analysis.

[9] = format: cell-based, E. coli; details: whole cells harboring Ir-CYP119 mutants, average of three biological repeats
CYP119 [10] = target: T2, CYP119 (Sulfolobus acidocaldarius, UniProt Q55080, C317G/L155W/T213G/V254L); test: ICP-MS measurement of CYP119 purified from E. coli co-expressing heme transport system (100 mL culture); format: cell-based; details: 0.1 μM Ir(Me)MPIX, single replicates
T2 construct: made in house; host or cells: E. coli BL21(DE3), co-transformed with pHug21 (HUG) or pBbS5a (RFP control)
T2 sequence (Q55080 whole entry L155W/T213G/V254L/C317G): as above
Method: (§1) (b) Protein purification (100 mL culture); A plasmid containing CYP119 mutant (pJHA110) was co-transformed with a plasmid (pHug21) encoding the heme transport system HUG, or an empty vector backbone (pBbS5a) into chemically competent BL21(DE3) (NEB) cells. Individual colonies from freshly transformed plates were inoculated into 4 mL M9-rich media supplemented with 100 μg/mL carbenicillin and 25 μg/mL kanamycin. The cultures were grown overnight at 37° C. and 200 rpm. In a 500 mL Erlenmeyer flask, 100 mL of M9-rich media was inoculated with 1 mL of overnight starter culture and incubated at 37° C. and 200 rpm to an OD600 of 0.7˜0.8. […] Upon induction, the incubation temperature was reduced to 30° C., and expressions were allowed to continue for 18 h at 200 rpm. Cells were harvested by centrifugation and stored at −20° C. until purification.
(§2) Cell debris was removed by centrifugation (10000 rpm, 45 min, 4° C.). The supernatants were incubated with Ni-NTA agarose (50% suspension, 4 mL) on a tube rotator (15 min, 4° C., 20 rpm) and poured into glass frits (coarse, 50 mL). The resin was washed (3×35 mL) with Ni-NTA lysis buffer (50 mM NaPi, 250 mM NaCl, 10 mM Imidazole, pH 8.0). The desired protein was eluded with 15 mL Ni-NTA elusion buffer (50 mM NaPi, 250 mM NaCl, 250 mM Imidazole, pH 8.0) and concentrated to 1 mL with a 30 kDa molecular weight cut-off Amicon centrifugal filtration device (EMD Millipore).
(§3) (c) ICP-MS analysis; Cone. HNO3 was added to each sample (1 mL) in to make a final concentration of 4% (v/v). After microwave digestion (140° C., 30 min), the samples were analyzed by ICP-MS (Elemental Analysis Core, Oregon Health & Science University).

CYP119 [11] = target: T2, CYP119; test: Fe and Ir content of CYP119 purified from HUG/CYP119 E. coli (700 mL culture); format: cell-based; details: 0.2 mg/L Ir(Me)MPIX
Method: as §1, with “(b) Protein purification (100 mL culture); A plasmid containing CYP119 mutant (pJHA110) was co-transformed with a plasmid (pHug21) encoding the heme transport system HUG, or an empty vector backbone (pBbS5a) into chemically competent BL21(DE3) (NEB) cells.” left out
as §2, §3

[12] = 0, 0.1, 1, 10 μM Ir(Me)MPIX, M9-rich media

CCC1=C(C)c2cc3[n-]c(cc4[n-]c(cc5nc(cc1n2)C(C)=C5CC)c(C)c4CCC(=O)O)c(CCC(=O)O)c3C.[CH3-].[Ir+3] [Ir(Me)MPIX]
effect on cell growth (BL21(DE3) cells; BL21(DE3) expressing the HUG system, 0-10 μM): little effect | effect on cell growth (BL21(DE3) cells; BL21(DE3) with empty vector pBbS5K, 0-10 μM): little effect | inhibition of cell growth (BL21(DE3) cells): did not inhibit cell growth | effect on growth of BL21(DE3) cells expressing the HUG system (E. coli BL21(DE3) cells; [12]): little effect on the growth | effect on growth of BL21(DE3) cells transformed with an empty vector pBbS5K (E. coli BL21(DE3) cells; [12]): little effect on the growth | effect on limonene titer [1]: unaffected; also recorded: little impact | Kb [2]: 4.2(0.3) × 10^5 M^−1 | Kd ([2]; read-out: Kd): 2400 nM

C=CC1=C(C)c2cc3[n-]c(cc4[n-]c(cc5nc(cc1n2)C(C)=C5C=C)c(C)c4CCC(=O)O)c(CCC(=O)O)c3C.[Cl-].[Fe+3] [Fe(Cl)PPIX]
Kd (apo-ascorbate peroxidase [3]): 190 nM | Kd (apo-myoglobin [4]): 600 nM

C=CC1=C(C)c2cc3[nH]c(cc4nc(cc5[nH]c(cc1n2)c(C)c5CCC(=O)O)C(CCC(=O)O)=C4C)c(C)c3C=C.[Fe+3] [Fe(Cl)PPIX, reference compound]
Kd (apo-myoglobin [5]): 600 nM | Kb [2]: 6.7(0.7) × 10^5 M^−1 | Kd [2]: 1500 nM | Kd (apo-ascorbate peroxidase [6]): 190 nM

CCOC(=O)[C@H]1C[C@@]1(C)[C@@H]1CC=C(C)CC1 [cyclopropyl limonene]
effect on cell growth (BL21(DE3) cells; BL21(DE3) with pHug21 and pJHA110, 0-25 mg/L): little effect | inhibition of cell growth (BL21(DE3) cells): did not inhibit cell growth | effect on growth of BL21(DE3) cells co-transformed with pHug21 and pJHA110 (encoding CYP119) (E. coli BL21(DE3) cells; 0, 0.2, 1, 5, 25 mg/L cyclopropyl limonene, 1% (v/v) ethanol): little effect on the growth

CCOC(=O)C=[N+]=[N-] [EDA, ethyl diazoacetate]
toxicity to E. coli cells (viable cells) [7]: toxic

B1: P/256W: CYP119 mutant (C317G, T213G, V254L, L155W, R256W) (protein, UniProt Q55080 1-368, looked up, variant C317G T213G V254L L155W R256W)
Cytochrome P450 119: MYDWFSEMRKKDPVYYDGNIWQVFSYRYTKEVLNNFSKFSSDLTGYHERLEDLRNGKIRFDIPTRYTMLTSDPPLHDELRSMSADIFSPQKLQTLETFIRETTRSLLDSIDPREDDIVKKLAVPLPIIVISKILGLPIEDKEKFKEWSDLVAFRWGKPGEIFELGKKYLELIGYVKDHLNSGTEVVSRVVNSNLSDIEKLGYIILLLIAGNEGTTNLISNSVIDFTRFNLWQRIREENLYLKAIEEALRYSPPLMWTVRKTKERVKLGDQTIEEGEYVRVWIASANRDEEVFHDGEKFIPDRNPNPHLSFGSGIHLGLGAPLARLEARIAIEEFSKRFRHIEILDTEKVPNEVLNGYKRLVVRLKSNE
in vitro diastereoselectivity (P2/Ptotal) [8]: 48% | in vivo diastereoselectivity (P2/Ptotal) [9]: 63%

B2: RFP/CYP119: CYP119 purified from E. coli transformed with pBbS5a (RFP control) and pJHA110 (protein, UniProt Q55080 1-368, looked up)
Cytochrome P450 119: B1 Cytochrome P450 119 with W155L, G213T, L254V, W256R, G317C
Ir, total amount present in the purified protein (CYP119 [10]): 0.66 nmol and 0.59 nmol and 0.62 nmol

B3: ChuA/Ton/CYP119: CYP119 purified from E. coli transformed with pJHA184 (ChuA and Ton complex) and pJHA110 (protein, UniProt Q55080 1-368, looked up)
Cytochrome P450 119: B1 Cytochrome P450 119 with W155L, G213T, L254V, W256R, G317C
Ir, total amount present in the purified protein (CYP119 [10]): 0.83 nmol and 0.69 nmol and 0.87 nmol

B4: HUG/CYP119: CYP119 purified from E. coli transformed with pHug21 (HUG system) and pJHA110 (protein, UniProt Q55080 1-368, looked up)
Cytochrome P450 119: B1 Cytochrome P450 119 with W155L, G213T, L254V, W256R, G317C
Ir, total amount present in the purified protein (CYP119 [10]): 3.15 nmol and 3.66 nmol and 3.08 nmol | Fe, total amount present in the purified protein (CYP119 [11]): 0.044 µmol and 0.031 µmol and 0.035 µmol | Fe:CYP119 (molar ratio) (CYP119 [11]): 12.4% and 8.5% and 9.1% | Ir, total amount present in the purified protein (CYP119 [11]): 0.039 µmol and 0.040 µmol and 0.041 µmol | Ir:CYP119 (molar ratio) (CYP119 [11]): 11.0% and 11.1% and 10.8%

B5: P (C317G, T213G, V254L, L155W): parent CYP119 mutant (C317G, T213G, V254L, L155W) (protein)
chain: B1 Cytochrome P450 119 with W256R
in vitro diastereoselectivity (P2/Ptotal) [8]: 20% | in vivo diastereoselectivity (P2/Ptotal) [9]: 53%
